Assay in all cases: NCI tumour cell line growth inhibition, 48 h
Assay [1] deals with U251 CNS.
Assay [2] has as its system SF-268 CNS.
In assay [3] the test system is NCI-H23 lung.
Assay [4] deals with NCI/ADR-RES ovarian.
For assay [5], the system named is NCI-H522 lung.
Assay [6] concerns LOX IMVI melanoma.
Assay [7] relates to HT29 colon.
The test system of assay [8] is T-47D breast.
The subject of assay [9] is SNB-19 CNS.
In assay [10] the test system is SK-OV-3 ovarian.

Values joined by “and” are separate entries in the source; they are usually repeats but may differ in a detail not shown here. Equal values may be shown once.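 All cell lines were grown in 96-well plates and treated with compound for 48 hours. The concentration for 50% growth inhibition is given as GI50. TGI is the concentration that stops growth completely.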 Where only a bound is given, the exact number is not on record here.

As to `N#CC12CC(C=O)=C(N)C1(C#N)CC(C=O)=C2N` (centres undefined), the TGI in [1], in assay [2], in assay [3], in assay [4], in assay [5] and in assay [6] was above 100 µM each time. In addition, the TGI in [7], in assay [8], in [9] and in assay [10] was above 100 µM each time.

Regarding `CSc1c(C(N)=S)c(N)nn1-c1ccccc1`, the TGI in [1], in [2], in [3], in [4], in assay [5] and in assay [6] was above 100 µM each time. For the same compound, the TGI in assay [7], in [8], in assay [9] and in [10] was above 100 µM in each case.

For `Cc1cc(C)n(CN(CCCCO)Cn2nc(C)cc2C)n1`, the TGI was found to be 49.9 µM in [1]; 65.2 µM in assay [2]; 50.6 µM in [3]; 39 µM in assay [4]; 48.1 µM in assay [5]; 51.2 µM in assay [6]. Further, the TGI was 37.1 µM in assay [7], 66.5 µM in assay [8], above 100 µM in [9] and above 100 µM in assay [10].

As for `CCOc1cc2c(cc1O)C=C[C@@H]1[C@@H]2CC[C@]2(C)[C@@H](O)CC[C@@H]12`, the TGI is above 38.3 µM in assay [1]; above 100 µM in assay [2]; above 48.1 µM in assay [3]; 12.8 µM in assay [4]; 7.3 µM in assay [5]; 30.4 µM in assay [6]. The TGI in assay [7] was 24.3 µM; in [8] it was 77.4 µM; in [9], above 55.4 µM; in assay [10], above 70.2 µM.

As to `CCOC(=O)c1ccc(NCc2ccc3nc(OC)c(OC)nc3c2)cc1`, the TGI in assay [1], in assay [2], in assay [3], in assay [4], in assay [5] and in assay [6] was above 100 µM in each case. The TGI in assay [7], in assay [8], in assay [9] and in assay [10] was above 100 µM each time.

In the case of `CN1/C(=C\N=O)C(C)(C)N(O)C1(C)C`, the TGI in assay [1], in assay [2], in assay [3], in assay [4], in assay [5] and in assay [6] was above 100 µM throughout. For the same compound, the TGI in assay [7], in assay [8], in assay [9] and in assay [10] was above 100 µM each time.

As for `O=C1NCN(c2ccccc2)C12CCN(CCCN1CCN(CCOC(c3ccccc3)c3ccccc3)CC1)CC2`, the TGI was 7.45 µM in assay [1]; 5.77 µM in assay [2]; 7.46 µM in assay [3]; 8.91 µM in [4]; 4.66 µM in assay [5]; 6.18 µM in assay [6]. Moreover, the TGI in assay [7] was determined as 4.22 µM; in [8] it was 7.18 µM; in assay [9], 7.77 µM; in assay [10] it was 7.12 µM.

`CCOC(=O)c1ccc(Nc2nc3ccccc3n3cccc23)cc1`: the TGI in assay [1] is 98 µM; in assay [2] it was above 100 µM; in [3] it was above 100 µM; in assay [4], above 100 µM; in assay [5] it was above 100 µM; in [6], above 100 µM. The TGI in assay [7] was above 100 µM; in assay [8], 47.7 µM; in [9], above 100 µM; in [10], 92.4 µM.

Turning to `NC1=Nc2ccccc2Sc2nccn21`, the TGI was found to be 96.2 µM in assay [1]; 88.4 µM in [2]; 52.2 µM in assay [3]; 72 µM in [4]; 44.3 µM in [5]; 32.3 µM in assay [6]. The TGI in assay [7] was 65.1 µM; in assay [8], 98.9 µM; in assay [9], above 100 µM; in [10] it was above 100 µM.

As for `CC1=C/C(=N\NS(=O)(=O)c2ccc([N+](=O)[O-])cc2)CC(C)(C)C1`, the TGI in assay [1], in assay [2], in assay [3], in [4], in assay [5] and in [6] was above 100 µM in each case. Also, the TGI in assay [8], in [9] and in assay [10] was above 100 µM in each case.

For the compound `CC(C)(C)c1ccc(NS(=O)(=O)c2ccc(N)cc2)cc1`, the TGI is 39.2 µM in assay [1]; 78.2 µM in assay [2]; 67.9 µM in [3]; 75.9 µM in assay [4]; 38.7 µM in assay [5]; 33.1 µM in assay [6]. Moreover, the TGI in [7] was 35.3 µM; in assay [8] it was above 100 µM; in assay [9] it was above 100 µM; in assay [10] it was 12.5 µM.

In the case of `Cc1ccc2c(ccc3ncc(CNc4ccc(NS(C)(=O)=O)cc4)c32)[nH]1`, the TGI in assay [1] was 72.2 µM; in assay [2] it was 52.5 µM; in assay [3], 58.7 µM; in assay [4], above 100 µM; in assay [5], 35.5 µM; in [6] it was 46.2 µM. For the same compound, the TGI in assay [7] is 93.6 µM; in assay [8], 47.7 µM; in assay [9] it was above 100 µM; in [10] it was 84.2 µM.

For `COc1ccc2c(c1)C(=O)c1c-2n(CCCN=[N+]=[N-])c(=O)c2cc([N+](=O)[O-])ccc12`, the GI50 in [1] is 0.16 µM; in assay [2], below 0.001 µM; in assay [3], 0.244 µM; in assay [5], below 0.001 µM; in [6] it was 0.0707 µM and 0.177 µM; in assay [7], 2.82 µM. In addition, the figures for the GI50 in assay [8] and in [10] were 1.57 µM and 7.14 µM, respectively. Moreover, the TGI in assay [3] is 18 µM; in [4], above 100 µM; in assay [5] it was 0.657 µM; in [6], 0.737 µM; in [7], above 100 µM; in assay [8] it was above 100 µM. The same compound had a TGI in assay [10] of 28.1 µM.

Source of the values: PubChem BioAssay (NCI).
